Reference: patent US20050221328A1, “Inhibitors of inflammatory gene activity and cholesterol biosynthesis” (Wyeth, priority 2002, published 2005)

What was measured:
human ICAM-1 promoter = test: ICAM-1 promoter luciferase reporter in HepG2 cells transfected with human FXR and RXRα; format: cell-based; conditions: HepG2 transfections, GW 4064 1 uM, 24 or 48 hr; required proximal NF-κB response element
Excerpt: Referring to FIG. 26, HepG2 cells were transfected with the human FXR and RXRα expression plasmid and luciferase reporter plasmids containing the proximal promoter region of the human SHP (−360 to +40) or sequential deletions of the human ICAM-1 promoter (−1108 or −810 to +18). […] Data represent the mean+S.D. of three independent transfections.

ICAM-1 = test: Hepatic mRNA levels after single oral dose of GW 4064 in C57BL/6 mice; format: in vivo, mouse; conditions: single oral dose 50 mg/kg, hepatic mRNA (FIG. 25)
HepG2 cells = test: Gene expression in HepG2 cells treated 24 hr with CDCA or GW 4064; format: cell-based, human
Procedure: HepG2 cells were maintained in growth media at 37° C. in a 5% CO2 incubator. The cells were seeded in deficient growth media (phenol red free DMEM (Gibco BRL) supplemented with heat-inactivated 10% FBS, 1% Glutamax, 1% MEM non-essential amino acids, 100 U/ml penicillin and 100 μg/ml streptomycin) at 4-5×10^5 cells per well in a 6 well dish (Falcon). The cells were then placed into serum deficient media for 24 hr before addition of the compounds for an additional 24 hrs. The cells were then harvested for RNA analysis.
To further investigate the possibility that bile acid signaling through FXR can promote inflammatory gene expression, experiments were conducted in the hepatocyte cell line, HepG2. […] HepG2 cells express a number of inflammatory genes including ICAM-1 and M-CSF constitutively (Stonans et al '99 Cytokine 11:151). […] As positive controls, the induction of SHP mRNA and the repression of cyp7a were confirmed.
Referring to FIG. 24a-b, HepG2 cells were treated for 24 hr with increasing concentrations of chenodeoxycholic acid (CDCA). […] Data are reported as mean±SEM for each group. C57BL/6 mice. […] Data are reported as mean±SEM for each group.

[1] = HepG2, 24 hr, CDCA 1-100 uM or GW 4064 1-1000 nM

CC(C)c1onc(-c2c(Cl)cccc2Cl)c1COc1ccc(/C=C/c2cccc(C(=O)O)c2)c(Cl)c1 [GW 4064]
ICAM-1 promoter activity (human ICAM-1 promoter): stimulated | ICAM-1 expression in vivo (ICAM-1): induces | EC50 observed for ICAM-induction vs cited FXR EC50 (HepG2 cells; HepG2): comparable | ICAM-1 expression (HepG2 cells; [1]): induced in a dose dependent manner | M-CSF expression (HepG2 cells; [1]): induced in a dose dependent manner | SHP mRNA (HepG2 cells; HepG2, 24 hr, positive control): induction | cyp7a expression (HepG2 cells; HepG2, 24 hr, positive control): repression
